Article PMC4122355, “Inhibitor of the Tyrosine Phosphatase STEP Reverses Cognitive Deficits in a Mouse Model of Alzheimer's Disease” (PLoS Biology, 2014)

What was measured:
[1] = tested on: cortical cultures; assay: LDH release toxicity assay in cortical cultures; format: cell-based; settings: up to 100 µM, up to 48 h, compared to positive controls
Procedure: Bovine LDH was used as a LDH-positive control. The media was collected and analyzed for LDH. The assay quantitatively measures LDH, a stable cytosolic enzyme that is released upon cell lysis. Released LDH in culture supernatants is measured with a 30-min coupled enzymatic assay, which results in the conversion of a tetrazolium salt (INT) into a red formazan product. The amount of color formed is proportional to the number of lysed cells.

[2] = tested on: GluN2B Y1472, Pyk2 Y402, ERK1/2 Y204/187 in WT and STEP KO cortical neurons; assay: Tyr phosphorylation of STEP substrates in WT and STEP KO mouse cortical cultures; format: cell-based; settings: 1 h
Procedure: Primary cortical neurons were isolated from Sprague Dawley rat embryos (E18) (Charles River Laboratories, Wilmington, MA) as previously described. In some experiments, cortical neurons were made from WT and STEP KO mouse embryos (E18). Neurons were allowed to grow for 18–21 d in CO2 incubator before addition of compounds at indicated doses for 1 h. Immediately following treatments, neurons were lysed in RadioImmuno Precipitation Assay (RIPA) buffer supplied with protease inhibitor cocktail (Roche Applied Science, Indianapolis, IN) and phosphatase inhibitors (NaF and Na3VO4). All experiments were replicated four times with four independent batches of cultures.
Samples were prepared and resolved by SDS-PAGE, transferred to nitrocellulose membrane, and incubated with phospho-specific antibodies (anti-pY^204/187 ERK1/2, anti-pY^402 Pyk2, anti-pY^1472 GluN2B) or total protein antibodies (anti-ERK2, anti-Pyk2, and anti-NR2B) overnight at 4°C. Immunoreactivity was visualized using a Chemiluminescent substrate kit (Pierce Biotechnology, Rockford, IL) and detected using a G:BOX with the image program GeneSnap (Syngene, Cambridge, UK). All densitometric quantifications were performed using the Genetools program.

[3] = tested on: GluN2B (Y1472), Pyk2 (Y402), ERK1/2 (Y204/187) in cortex; assay: Tyr phosphorylation of STEP substrates in cortex of WT mice after i.p. injection; format: in vivo, mouse; settings: C57BL/6 mice, 10 mg/kg i.p., 3 h postinjection, relative to vehicle
Procedure: Wild-type, male C57BL/6 mice (3–6 mo) were used for all studies. […] Cortical tissues were dissected out 3 h postinjection and processed for subcellular fractionation. […] Homogenates were centrifuged at 800 × g to remove nuclei and large debris (P1). Synaptosomal fractions (P2) were prepared from S1 by centrifugation at 9,200 × g for 15 min. The P2 pellet was washed twice and was resuspended in TEVP buffer. […] Samples were prepared and resolved by SDS-PAGE, transferred to nitrocellulose membrane, and incubated with phospho-specific antibodies (anti-pY^204/187 ERK1/2, anti-pY^402 Pyk2, anti-pY^1472 GluN2B) or total protein antibodies (anti-ERK2, anti-Pyk2, and anti-NR2B) overnight at 4°C. Immunoreactivity was visualized using a Chemiluminescent substrate kit (Pierce Biotechnology, Rockford, IL) and detected using a G:BOX with the image program GeneSnap (Syngene, Cambridge, UK). All densitometric quantifications were performed using the Genetools program.

[4] = molecular target: T1, SHP-2 (Homo sapiens, UniProt Q06124); assay: Selectivity pNPP assay, full-length PTPs: SHP-2; format: biochemical; settings: full-length PTP, 10 nM, 500 µM pNPP
T1 construct: GST (N); made in house; host or cells: E. coli BL21 (DE3)
T1 sequence (Q06124 1-593): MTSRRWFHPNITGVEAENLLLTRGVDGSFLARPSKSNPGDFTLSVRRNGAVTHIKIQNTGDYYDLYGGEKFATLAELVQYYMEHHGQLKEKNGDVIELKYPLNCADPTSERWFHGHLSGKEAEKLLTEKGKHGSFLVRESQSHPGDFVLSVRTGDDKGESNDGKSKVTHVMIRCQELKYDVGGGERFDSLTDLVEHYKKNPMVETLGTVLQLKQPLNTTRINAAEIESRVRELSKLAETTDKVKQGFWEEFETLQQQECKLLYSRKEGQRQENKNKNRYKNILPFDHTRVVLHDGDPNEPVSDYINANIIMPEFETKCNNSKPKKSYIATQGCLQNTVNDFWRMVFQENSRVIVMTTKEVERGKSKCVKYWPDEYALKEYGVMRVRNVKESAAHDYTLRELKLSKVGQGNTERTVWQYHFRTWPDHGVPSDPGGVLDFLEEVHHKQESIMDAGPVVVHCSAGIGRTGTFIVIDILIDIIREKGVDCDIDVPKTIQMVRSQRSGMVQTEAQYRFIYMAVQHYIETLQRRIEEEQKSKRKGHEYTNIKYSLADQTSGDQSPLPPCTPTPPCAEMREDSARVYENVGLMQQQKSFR
Text: Constructs were transformed into BL21 (DE3) E. coli cells. Fusion proteins were purified on a glutathione sepharose column.

[5] = tested on: 3xTg-AD and WT mice; assay: Novel object recognition (NOR) task; format: in vivo, mouse; settings: 10 mg/kg i.p.
Procedure: Mice were first habituated to the task by allowing them to explore an empty white open field box (60 cm×60 cm) for 5 min. […] After the elapsed time, the mice completed the sample phase in which they were placed into the open field box with two identical objects located in the right and left corners. Mice were allowed to freely explore until they had accumulated a total of 30 s of object exploration (i.e., contact with the object with the nose and/or front paws), at which point the trial ended. The time spent with each object was recorded. Mice that were unable to complete the 30 s exploration within 20 min during the sample phase were excluded from the study (WT = 1 and AD = 3). Twenty-four hours later, mice completed the choice phase that was conducted in an identical manner to the sample phase except that one of the objects was substituted by a novel object and trial duration was set at 5 min. No drug treatments were given during the choice phase. Fifteen WT mice from the initial cohort were used to optimize the novel object conditions (to identify object pairings of inherent equal interest). Location of the novel object (left or right side) was counterbalanced to minimize possible bias. […] The DI was calculated for each subject by using the following formula: DI = (time spent exploring novel object – time spent exploring familiar object)/(total time spent exploring both objects). […]

## Cl.Nc1cc(C(F)(F)F)cc2c1SSSSS2 [TC-2153, 8-(trifluoromethyl)-1,2,3,4,5-benzopentathiepin-6-amine hydrochloride]
[1]
  LDH release (neuronal cell death): no significant effect on LDH release
[2]; STEP KO cultures, TC-2153 0.1 and 1 µM, Na3VO4 1 mM
  Tyr phosphorylation of STEP substrates in STEP KO cortical cultures: failed to increase the phosphorylation of STEP substrates
[2]; WT cultures, 0.1 and 1 µM
  Tyr phosphorylation of STEP substrates in WT mouse cortical neurons: an increase in the Tyr phosphorylation of STEP substrates
[3]
  pERK1/2 in cortex (P2 fraction): 2.52±0.16
  pGluN2B in cortex (P2 fraction): 1.66±0.28
  pPyk2 in cortex (P2 fraction): 1.80±0.30
[4]
  IC50: 6.9 µM
[5]; 12-mo-old 3xTg-AD mice, familiar versus novel p<0.05
  NOR memory in 12-mo-old AD mice: significant improvement of memory
[5]; WT mice, 12 mo cohort
  NOR cognitive function in 12-mo-old WT mice: did not affect cognitive function
